Experimental data published in patent publication US9573975B2, “Melanoma antigen peptide and uses thereof” (INSERM (INSTITUT NATIONAL DE LA SANTE ET DE LA RECHERCHE …, priority 2012, dated 2017).

Test system: MELOE-1 specific CD4 T cell clones
Experiment: Recognition of autologous DC loaded with antigen by CD4 T cell clones (TNF-α)
Type: cell-based, human
Description: FIG. 4: Class II epitopes are naturally processed from MELOE-1 whole antigen. Autologous DC, were loaded (before or after fixation) with MELOE-12-46 (1 μM) or, as a negative control, with Melan-A16-40L peptide (1 μM), and matured. T cell clones were then stimulated with DC at a ratio 1:1, during 5 h in presence of Brefeldin A, then stained with APC-conjugated anti-CD3 mAb, fixed with 4% paraformaldehyde, labeled with PE-conjugated anti-TNF-α mAb and analyzed by flow cytometry. Histograms illustrated the % of TNF-α producing cells among CD3 positive T cells.
Dendritic Cells Generation and Loading Monocytes were purified from PBMC of healthy donors by a CD14-enrichment kit, according the recommendations of the supplier (Stem Cell, France). Immature dendritic cells (iDC) were generated by culturing monocytes in RPMI supplemented with 20 mg/mL of human albumin, 1000 IU/mL of GM-CSF and 200 IU/mL of IL-4 for 5 days. Then, iDC were pulsed with the whole MELOE-1 (1 μM) protein or the modified Melan-A16-40 A27L as negative control (1 μM) and matured with 20 ng/mL of TNF-α and 50 μg/mL of PolyI:C for 4 hours at 37° C. Finally they were fixed for 1 minute with PBS/0.015% glutaraldehyde. Alternatively, iDC were first matured, fixed and then pulsed with antigens at the same concentration. […]

## MSCVGYPDEATSREQFLPSEGAACPPWHPSERISSTLNDECWPASL [MELOE-1]
DC loaded after DC fixation
  recognition by specific CD4 T cell clones of loaded autologous DC: only a weak recognition
iDC loaded with 1 μM in serum-free medium, matured, then fixed
  reactivity of the four CD4 T cell clones against loaded autologous DC: reactive
